Measurements reported in patent US9249151B2, “Bis-amido pyridines” (Boehringer Ingelheim International GmbH, priority 2013, dated 2016).
pIC50: −log10 of the molar value.

Each compound was assayed against BIR3 domain of human cIAP1 (amino acids 256 to 363; cIAP1 BIR3) (Homo sapiens (Human), UniProt Q13490) (assay: cIAP1 BIR3 binding assay (DELFIA)). Conditions: BIR3 domain 10 nM, SMAC peptide 10 nM; values represent the (S)-isomers; * = racemic compound; read-out: cIAP1 BIR-3 IC50.
Experimental: XIAP BIR3 and cIAP1 BIR3 Binding Assays (DELFIA)
Peptide […]-Lys(Biotin), representing the N-terminus of mature human SMAC (SMAC peptide), was used as interaction partner in the protein-peptide interaction assay.
BIR3 domains (10 nM) were incubated with SMAC peptide (10 nM) in assay buffer (50 mM Tris, 120 mM NaCl, 0.1% BSA, 1 mM DTT, 0.05% TritonX100) for one hour at room temperature in the presence of inhibitory compounds. The assay mixture was transferred to a streptavidin coated plate and incubated for one hour at room temperature to allow binding of the biotinylated peptide and associated BIR3 domains to the plate. After several washing steps Eu labeled anti-GST antibody (e.g. Perkin Elmer DELFIA Eu-N1-antiGST AD0250) was added to detect BIR3 domain-SMAC peptide interactions m according to Perkin Elmer's instructions. […] Time resolved Europium fluoresecence was measured in a Wallac Victor using Standard assay settings.
DELFIA assay results were plotted against compound concentrations and Software GraphPad Prizm was used to calculate half maximal inhibitory concentrations (IC50 values).

Sequence of BIR3 domain of human cIAP1 (amino acids 256 to 363; cIAP1 BIR3) (Q13490 256-363): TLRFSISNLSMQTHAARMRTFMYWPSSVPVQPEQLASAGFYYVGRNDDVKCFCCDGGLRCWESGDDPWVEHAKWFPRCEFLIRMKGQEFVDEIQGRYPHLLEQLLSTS

Compared with `CNC(C)C(=O)Nc1cc(-c2c(C)ccc3ncccc23)cc(NC(=O)c2cc(-c3ccccc3)on2)n1` (centres unmarked) [Example 46, N-{6-[2-(methylamino)propanamido]-4-(6-methylquinolin-5-yl)pyridin-2-yl}-5-phenyl-1,2-oxazole-3-carboxamide], `CNC(C)C(=O)Nc1cc(-c2c(C)ccc3ncccc23)cc(NC(=O)c2ccccn2)n1` (centres unmarked) [Example 39, N-{6-[2-(methylamino)propanamido]-4-(6-methylquinolin-5-yl)pyridin-2-yl}pyridine-2-carboxamide] is 1.06 log units higher in pIC50: 5.20 for the first, 6.26 for the second. The second is the more potent here.

First: CNC(C)C(=O)Nc1cc(-c2c(C)ccc3ncccc23)cc(NC(=O)c2ccc(C)cn2)n1 (centres unmarked) [Example 29, 5-methyl-N-{6-[2-(methylamino)propanamido]-4-(6-methylquinolin-5-yl)pyridin-2-yl}pyridine-2-carboxamide]
Second: CNC(C)C(=O)Nc1cc(-c2c(C)ccc3ncccc23)cc(NC(=O)c2ccc(F)cn2)n1 (centres unmarked) [Example 32, 5-fluoro-N-{6-[2-(methylamino)propanamido]-4-(6-methylquinolin-5-yl)pyridin-2-yl}pyridine-2-carboxamide]
The pIC50 of the first is 0.27 log units higher: 7.55 for the first, 7.28 for the second.

`CNC(C)C(=O)Nc1cc(-c2c(C)nc(C)c3c(=O)n(C)n(C)c23)cc(NC(=O)c2ccc(Cl)cn2)n1` (centres unmarked) [Example 26, 5-chloro-N-{6-[2-(methylamino)propanamido]-4-{1,2,4,6-tetramethyl-3-oxo-1H,2H,3H-pyrazolo[4,3-c]pyridin-7-yl}pyridin-2-yl}pyridine-2-carboxamide] and `CNC(C)C(=O)Nc1cc(-c2ncnc3nc(C)n(C)c23)cc(NC(=O)c2ccc(Cl)cn2)n1` (centres unmarked) [Example 16, 5-chloro-N-[4-(7,8-dimethyl-7H-purin-6-yl)-6-[2-(methylamino)propanamido]-pyridin-2-yl]pyridine-2-carboxamide] are the same in pIC50: 9.00 for the first, 9.00 for the second.

`CNC(C)C(=O)Nc1cc(-c2ncnc3cccc(Cl)c23)cc(NC(=O)c2ccc(Cl)cn2)n1` (centres unmarked) [Example 22, 5-chloro-N-[4-(5-chloroquinazolin-4-yl)-6-[2-(methylamino)propanamido]-pyridin-2-yl]pyridine-2-carboxamide] and `CNC(C)C(=O)Nc1cc(-c2c(OC)ccc3nccc(C)c23)cc(NC(=O)c2ccc(Cl)cn2)n1` (centres unmarked) [Example 24, 5-chloro-N-[4-(6-methoxy-4-methylquinolin-5-yl)-6-[2-(methylamino)propanamido]-pyridin-2-yl]pyridine-2-carboxamide] are the same in pIC50: 9.00 for the first, 9.00 for the second.

First: CNC(C)C(=O)Nc1cc(-c2c(C)ccc3ncccc23)cc(NC(=O)c2cccc(C)n2)n1 (centres unmarked) [Example 40, 6-methyl-N-{6-[2-(methylamino)propanamido]-4-(6-methylquinolin-5-yl)pyridin-2-yl}pyridine-2-carboxamide]
Second: CNC(C)C(=O)Nc1cc(-c2c(C)ccc3ncccc23)cc(NC(=O)c2ncc3ccccc3n2)n1 (centres unmarked) [Example 31, N-{6-[2-(methylamino)propanamido]-4-(6-methylquinolin-5-yl)pyridin-2-yl}quinazoline-2-carboxamide]
The pIC50 of the first is 1.06 log units lower: 6.22 for the first, 7.28 for the second.

Compared with `CC(N)C(=O)Nc1cc(Cl)cc(NC(=O)c2ccccn2)n1` (centres unmarked) [Example 56, N-[6-(2-aminopropanamido)-4-chloropyridin-2-yl]pyridine-2-carboxamide], `CNC(C)C(=O)Nc1cc(-c2ccncc2C)cc(NC(=O)c2ccc(Cl)cn2)n1` (centres unmarked) [Example 47, 5-chloro-N-{6-[2-(methylamino)propanamido]-4-(3-methylpyridin-4-yl)pyridin-2-yl}pyridine-2-carboxamide] is 2.43 log units higher in pIC50: 5.34 for the first, 7.77 for the second. The second is the more potent here.

Going from `CNC(C)C(=O)Nc1cc(-c2ncnc3c(C)nn(C)c23)cc(NC(=O)c2cc3c(cn2)COC3)n1` (centres unmarked) [Example 2, N-(4-{1,3-dimethyl-1H-pyrazolo[4,3-d]pyrimidin-7-yl}-6-[2-(methylamino)propanamido]-pyridin-2-yl)-1H,3H-furo[3,4-c]pyridine-6-carboxamide] to `CNC(C)C(=O)Nc1cc(-c2cccc3nc(C)c(C)n23)cc(NC(=O)c2ccc(Cl)cn2)n1` (centres unmarked) [Example 11], the pIC50 rises from 8.70 to 9.00 (0.30 log units).
